Measured values: ChEMBL document CHEMBL1149412, “Novel human lipoxygenase inhibitors discovered using virtual screening with homology models” (J Med Chem, 2006)

Assay: Partition coefficient of the compound, log P
Assay type: physicochemical
Settings: octanol/water

logP	SMILES
4.64	Nc1sc2c(c1C(=O)Nc1cccc(Cl)c1)CCCC2
5.42	Cc1cccc(C(=N)NOC(=O)c2ccc(C)cc2Cl)c1
3.93	CCc1cc(-c2n[nH]cc2Oc2ccccc2)c(O)cc1O
